Experimental findings from patent publication US10246449B2, “1,2,3 triazole-thiazole compounds, process for preparation and use thereof” (Council of Scientific & Industrial Research, priority 2015, dated 2019) are described below.

Molecules are shown by their SMILES.

For `CCCCc1cn(Cc2csc(-c3ccc(Cl)cc3)n2)nn1` [Compound 2, 4-((4-Butyl-1H-1,2,3-triazol-1-yl)methyl)-2-(4-chlorophenyl)thiazole], the melting point lay within 98 to 99 °C.
Then `Clc1ccc(-c2nc(Cn3cc(C4CC4)nn3)cs2)cc1` [Compound 3, 2-(4-Chlorophenyl)-4-((4-cyclopropyl-1H-1,2,3-triazol-1-yl)methyl)thiazole], with 109 to 111 °C; and `OCc1cn(Cc2csc(-c3ccc(Cl)cc3)n2)nn1` [Compound 4, (1-((2-(4-Chlorophenyl)thiazol-4-yl)methyl)-1H-1,2,3-triazol-4-yl)methanol], with 152 to 154 °C; and `CCCCCc1cn(Cc2csc(-c3ccc(Cl)cc3)n2)nn1` [Compound 5, 2-(4-Chlorophenyl)-4-((4-pentyl-1H-1,2,3-triazol-1-yl)methyl)thiazole], with 88 to 90 °C.
As for `Clc1ccc(-c2nc(Cn3cc(COC4CCCCO4)nn3)cs2)cc1` (centres unmarked) [Compound 6, 2-(4-Chlorophenyl)-4-((4-(((tetrahydro-2H-pyran-2-yl)oxy)methyl)-1H-1,2,3-triazol-1-yl)methyl)thiazole], the melting point lay within 92 to 94 °C.
Then `CCOC(=O)c1cn(Cc2csc(-c3ccc(Cl)cc3)n2)nn1` [Compound 7, Ethyl 1-((2-(4-chlorophenyl)thiazol-4-yl)methyl)-1H-1,2,3-triazole-4-carboxylate], with 149 to 151 °C; and `OCCCCc1cn(Cc2csc(-c3ccc(Cl)cc3)n2)nn1` [Compound 8, 4-(1-((2-(4-Chlorophenyl)thiazol-4-yl)methyl)-1H-1,2,3-triazol-4-yl)butan-1-ol], with 157 to 159 °C; and `Clc1ccc(-c2nc(Cn3nncc3-c3ccccc3)cs2)cc1` [Compound 9, 2-(4-chlorophenyl)-4-((5-phenyl-1H-1,2,3-triazol-1-yl)methyl)thiazole], with 175 to 177 °C.

One may read the melting point as the temperature of the solid-liquid transition.
